Measurements published in EP0366632A1, “Alternative energy substrates” (priority 1988, dated 1990).
Marks after values point to notes of the source that are not given here.

Tests used:
E. coli = assay: Microorganism count in emulsions diluted to 2% (Example 20, Table 2); format: cell-based; settings: emulsion diluted to 2% with PBS pH=7.00, +37°C
[1] = tested on: Escherichia coli ATTC 8739; assay: Microorganism count in 2% solutions of sodium salts (Example 19); format: cell-based; settings: 2% solution, pH about 7, +37°C
Description: (§1) Staphylococcus epidermidis 61540-51 and Escherichia coli ATTC 8739 were each added to a respective solution in a concentration of about 3000-10 000/ml. These samples were then incubated at +37°C for 20 hours. A microorganism count was carried out after 2 and 20 hours, in a manner described in microbiological literature. Parallel with the aforesaid tests, a control was run in pure phosphate buffer and in Tryptone soya broth (TSB) with additions of Staphylococcus epidermidis 61540-51 and Escherichia coli ATTC 8739 respectively, to ascertain the viability of the microorganisms to survive, i.e. the ability of the microorganisms to grow under the ideal conditions provided. After 2 hours, the number of organisms/ml of type Staphylococcus epidermidis in the phosphate solution was 4300 and after 20 hours 1. Growth could be established in TSB after 20 hours. […] This was also the case with the sodium salt of 2 percent 5-methyl-3-oxo-hexanoic acid ethyl ester. After 2 hours, the microorganism count of Escherichia coli in the phosphate solution was 3400, and after 20 hours 7400. Growth was established in TSB after 20 hours. In the solution containing 2% sodium salt of 4-methyl-3-oxo-pentanoic acid ethyl ester, the organism count was 2000 after 2 hours and 0 after 20 hours. With respect to the sodium salt of 5-methyl-3-oxo-hexanoic acid ethyl ester, the organism count was 44 after 2 hours and 0 after 20 hours.

[2] = tested on: Staphylococcus epidermidis 61540-51; assay: as above; format: cell-based; settings: 2% solution, pH about 7, +37°C
Description: as §1

[3] = Unspecified toxicity, intravenous injection in mice; format: in vivo; settings: Example 22: 37 mg per mouse i.v.
Description: Unspecified toxicity was tested on four mice by first weighing the animals, and then injecting the animals intravenously with 0.5 ml of an emulsion of 4-methyl-3-oxo-pentanoic acid having a concentration of 50 mg/ml for 10 minutes. Each mouse received a dosage of 25 mg. The emulsion was prepared aseptically, by emulsifying sterile-filtered ester with a sterilized dispersion of egg-yolk phospholipids. […] The increase in weight of the animals was normal during the observation period (weight increase: X=4.5 g, S.D. 0.5).
The unspecific toxicity was tested on 5 mice by first weighing the animals, and then injecting intravenously 0.5 ml of an emulsion of 4-methy-3-oxo-pentanoic acid ethyl ester having a concentration of 5 mg/ml for 15 seconds. The emulsion was aseptically prepared, by emulsifying sterile-filtered ester with a sterilized dispersion of egg-yolk phospholipids. […] Each mouse received a total dosage of 2.5 mg.
Unspecified toxicity was tested on four mice by first weighing the animals, and then injecting intravenously 0.2 ml of an emulsion of 4-methyl-3-oxo-pentanoic acid ethyl ester having a concentration of 33 mg/ml for 30 seconds. Each mouse received a dosage of 6.7 mg. The emulsion was prepared aseptically, by emulsifying sterile-filtered ester with a sterilized dispersion of egg-yolk phospholipids. […]

[4] = after 2 hours, inoculum about 3000-10 000/ml

**Q.** Which number of microorganisms (E. coli; 0 hr) does the source give for `CCOC(=O)C(=O)C(C)C` [Ethyl-3-methyl-2-oxo-butyrate] here?
**A.** 0*

**Q.** And the number of microorganisms (E. coli; 2 hrs)?
**A.** 0

**Q.** What about the number of microorganisms (E. coli; 20 hrs) of the same compound?
**A.** 0

**Q.** Which results are given for `CCOC(=O)CC(=O)CC(C)C.[Na]` [sodium salt of 5-methyl-3-oxo-hexanoic acid ethyl ester]?
**A.** organism count [1, 4]: 44; organism count ([1]; after 20 hours): 0; number of organisms [2, 4]: No organisms were found; number of organisms ([2]; after 20 hours): No organisms were found; time after completing the injection until return to normal [3]: 1 min; weight development over the following 7 days [3]: normal weight development

**Q.** Which results are given for `CCOC(=O)CC(=O)C(C)C.[Na]` [sodium salt of 4-methyl-3-oxo-pentanoic acid ethyl ester]?
**A.** organism count [1, 4]: 2000; organism count ([1]; after 20 hours): 0; number of organisms [2, 4]: No organisms were found; number of organisms ([2]; after 20 hours): No organisms were found

**Q.** Which number of microorganisms (E. coli; 0 hr) does the source give for `CCOC(=O)C(C)=O` [Ethyl-pyruvate] here?
**A.** 0*

**Q.** What about the number of microorganisms (E. coli; 2 hrs) of the same compound?
**A.** 0

**Q.** What about the number of microorganisms (E. coli; 20 hrs) of the same compound?
**A.** 0
